Results taken from the kinase profiling compilation of Christmann-Franck et al. (2016).

Experiments:
Experiment in all cases: KINOMEscan competition binding
Details in all cases: compound 10.0 µM
AXL (human) = AXL (human) (UniProt P30530)
BMPR1B (human) = BMPR1B (human) (UniProt O00238)
BRSK1 (human) = BRSK1 (human) (UniProt Q8TDC3)
CASK (human) = CASK (human) (UniProt O14936)
CDK4 CCND1 (human) = CDK4 CCND1 (human) (UniProt P11802+P24385)
CDKL1 (human) = CDKL1 (human) (UniProt Q00532)
DDR1 (human) = DDR1 (human) (UniProt Q08345)
DDR2 (human) = DDR2 (human) (UniProt Q16832)
DSTYK (human) = DSTYK (human) (UniProt Q6XUX3)
[1] = test system: EGFR (human), P00533 [747-751 del / S ins]
EGFR (human), P00533 [747-751 del / S ins], sequence (P00533 whole entry, looked up, stated change not applied): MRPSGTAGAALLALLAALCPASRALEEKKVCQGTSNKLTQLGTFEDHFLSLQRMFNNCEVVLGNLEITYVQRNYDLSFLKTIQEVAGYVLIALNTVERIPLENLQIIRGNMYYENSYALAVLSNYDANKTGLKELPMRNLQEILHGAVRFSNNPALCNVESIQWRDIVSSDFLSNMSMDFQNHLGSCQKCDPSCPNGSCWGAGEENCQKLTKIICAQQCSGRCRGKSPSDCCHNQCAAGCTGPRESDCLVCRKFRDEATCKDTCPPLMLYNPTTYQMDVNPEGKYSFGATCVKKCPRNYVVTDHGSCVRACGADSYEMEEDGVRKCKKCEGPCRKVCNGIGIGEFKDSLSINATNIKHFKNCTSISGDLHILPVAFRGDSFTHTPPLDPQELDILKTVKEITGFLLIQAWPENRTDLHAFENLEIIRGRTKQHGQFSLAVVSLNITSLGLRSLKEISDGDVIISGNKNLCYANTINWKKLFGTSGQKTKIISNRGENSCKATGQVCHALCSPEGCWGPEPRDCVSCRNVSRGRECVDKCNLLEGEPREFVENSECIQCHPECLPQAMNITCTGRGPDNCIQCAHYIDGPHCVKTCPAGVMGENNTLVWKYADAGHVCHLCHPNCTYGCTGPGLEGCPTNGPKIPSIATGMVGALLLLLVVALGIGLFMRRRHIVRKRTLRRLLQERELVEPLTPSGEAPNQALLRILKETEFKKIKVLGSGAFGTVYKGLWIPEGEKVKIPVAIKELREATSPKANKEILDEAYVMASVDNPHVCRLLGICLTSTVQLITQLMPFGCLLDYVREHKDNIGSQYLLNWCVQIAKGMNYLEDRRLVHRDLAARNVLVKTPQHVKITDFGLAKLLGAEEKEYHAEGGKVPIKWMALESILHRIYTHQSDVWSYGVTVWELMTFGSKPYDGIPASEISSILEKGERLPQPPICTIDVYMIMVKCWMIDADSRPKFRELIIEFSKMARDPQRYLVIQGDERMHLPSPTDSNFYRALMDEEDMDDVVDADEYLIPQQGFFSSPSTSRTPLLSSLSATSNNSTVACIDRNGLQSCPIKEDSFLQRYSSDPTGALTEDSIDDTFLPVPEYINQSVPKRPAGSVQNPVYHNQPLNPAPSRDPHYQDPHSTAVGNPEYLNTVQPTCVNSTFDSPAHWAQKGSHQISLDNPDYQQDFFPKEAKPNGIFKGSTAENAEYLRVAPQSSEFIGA

EPHA4 (human) = EPHA4 (human) (UniProt P54764)
EPHA8 (human) = EPHA8 (human) (UniProt P29322)
EPHA8 (human), sequence (P29322 whole entry, looked up): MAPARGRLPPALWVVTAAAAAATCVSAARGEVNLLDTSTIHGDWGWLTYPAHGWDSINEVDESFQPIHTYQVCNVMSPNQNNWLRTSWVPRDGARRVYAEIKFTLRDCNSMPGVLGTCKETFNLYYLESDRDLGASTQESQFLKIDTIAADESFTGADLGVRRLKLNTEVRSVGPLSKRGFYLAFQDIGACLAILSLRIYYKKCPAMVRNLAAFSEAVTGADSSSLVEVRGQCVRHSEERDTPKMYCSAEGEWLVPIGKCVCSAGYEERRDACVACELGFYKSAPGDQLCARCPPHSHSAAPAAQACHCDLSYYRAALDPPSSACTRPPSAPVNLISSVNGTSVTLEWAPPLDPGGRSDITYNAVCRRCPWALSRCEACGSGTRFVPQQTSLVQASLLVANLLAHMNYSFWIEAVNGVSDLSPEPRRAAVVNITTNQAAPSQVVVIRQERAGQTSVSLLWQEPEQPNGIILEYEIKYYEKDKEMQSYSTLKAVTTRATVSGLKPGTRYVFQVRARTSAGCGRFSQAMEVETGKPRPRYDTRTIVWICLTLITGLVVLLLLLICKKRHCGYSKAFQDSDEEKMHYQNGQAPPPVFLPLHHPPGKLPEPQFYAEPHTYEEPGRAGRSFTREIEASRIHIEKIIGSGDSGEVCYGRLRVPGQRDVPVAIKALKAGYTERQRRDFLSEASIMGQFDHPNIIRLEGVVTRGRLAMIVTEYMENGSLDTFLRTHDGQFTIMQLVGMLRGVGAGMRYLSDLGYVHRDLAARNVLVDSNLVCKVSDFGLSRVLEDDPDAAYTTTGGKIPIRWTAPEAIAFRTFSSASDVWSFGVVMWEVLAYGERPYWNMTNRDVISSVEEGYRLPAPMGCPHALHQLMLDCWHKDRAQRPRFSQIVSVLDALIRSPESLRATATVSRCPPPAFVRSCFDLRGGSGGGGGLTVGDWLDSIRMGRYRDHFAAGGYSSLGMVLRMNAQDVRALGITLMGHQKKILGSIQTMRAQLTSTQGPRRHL

ERN1 (human) = ERN1 (human) (UniProt O75460)
[2] = test system: FLT3 (human), P36888 [R834Q]
IKBKB (human) = IKBKB (human) (UniProt O14920)
[3] = molecular target: JAK1 JH2 pseudokinase (human) (UniProt P23458)
JAK1 JH2 pseudokinase (human), sequence (P23458 whole entry, looked up): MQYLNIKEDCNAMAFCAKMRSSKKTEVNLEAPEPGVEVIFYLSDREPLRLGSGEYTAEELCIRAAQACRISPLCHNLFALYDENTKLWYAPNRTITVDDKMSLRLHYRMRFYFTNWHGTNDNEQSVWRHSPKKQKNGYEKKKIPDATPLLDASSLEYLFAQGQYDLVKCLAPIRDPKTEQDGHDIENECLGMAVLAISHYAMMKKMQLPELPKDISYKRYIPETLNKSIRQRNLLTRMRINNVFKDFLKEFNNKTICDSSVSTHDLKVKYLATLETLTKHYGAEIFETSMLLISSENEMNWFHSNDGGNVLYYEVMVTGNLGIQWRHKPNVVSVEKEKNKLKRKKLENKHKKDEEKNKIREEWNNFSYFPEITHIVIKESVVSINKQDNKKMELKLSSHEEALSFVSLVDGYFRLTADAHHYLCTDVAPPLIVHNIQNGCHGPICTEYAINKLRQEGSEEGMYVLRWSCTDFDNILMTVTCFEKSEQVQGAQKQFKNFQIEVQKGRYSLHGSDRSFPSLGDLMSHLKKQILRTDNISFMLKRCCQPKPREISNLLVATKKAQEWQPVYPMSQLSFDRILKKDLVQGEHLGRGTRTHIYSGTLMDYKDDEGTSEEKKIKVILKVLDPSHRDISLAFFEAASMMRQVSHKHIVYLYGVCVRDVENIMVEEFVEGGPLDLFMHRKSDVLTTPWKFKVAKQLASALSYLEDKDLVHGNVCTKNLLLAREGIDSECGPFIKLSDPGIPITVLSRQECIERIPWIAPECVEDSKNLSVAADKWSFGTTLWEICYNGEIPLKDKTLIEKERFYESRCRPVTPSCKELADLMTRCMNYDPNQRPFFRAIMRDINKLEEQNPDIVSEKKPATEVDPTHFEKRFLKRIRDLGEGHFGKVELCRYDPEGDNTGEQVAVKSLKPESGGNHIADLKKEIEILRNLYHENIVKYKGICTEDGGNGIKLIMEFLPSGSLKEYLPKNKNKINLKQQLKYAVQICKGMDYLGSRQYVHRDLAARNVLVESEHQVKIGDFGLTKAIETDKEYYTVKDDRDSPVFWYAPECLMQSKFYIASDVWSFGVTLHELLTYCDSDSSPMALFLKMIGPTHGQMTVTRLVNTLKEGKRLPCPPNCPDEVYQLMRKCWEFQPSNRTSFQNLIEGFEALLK

KDR (human) = KDR (human) (UniProt P35968)
LIMK1 (human) = LIMK1 (human) (UniProt P53667)
MAK (human) = MAK (human) (UniProt P20794)
MAP2K7 (human) = MAP2K7 (human) (UniProt O14733)
MAP4K3 (human) = MAP4K3 (human) (UniProt Q8IVH8)
MAP4K5 (human) = MAP4K5 (human) (UniProt Q9Y4K4)
MAP4K5 (human), sequence (Q9Y4K4 whole entry, looked up): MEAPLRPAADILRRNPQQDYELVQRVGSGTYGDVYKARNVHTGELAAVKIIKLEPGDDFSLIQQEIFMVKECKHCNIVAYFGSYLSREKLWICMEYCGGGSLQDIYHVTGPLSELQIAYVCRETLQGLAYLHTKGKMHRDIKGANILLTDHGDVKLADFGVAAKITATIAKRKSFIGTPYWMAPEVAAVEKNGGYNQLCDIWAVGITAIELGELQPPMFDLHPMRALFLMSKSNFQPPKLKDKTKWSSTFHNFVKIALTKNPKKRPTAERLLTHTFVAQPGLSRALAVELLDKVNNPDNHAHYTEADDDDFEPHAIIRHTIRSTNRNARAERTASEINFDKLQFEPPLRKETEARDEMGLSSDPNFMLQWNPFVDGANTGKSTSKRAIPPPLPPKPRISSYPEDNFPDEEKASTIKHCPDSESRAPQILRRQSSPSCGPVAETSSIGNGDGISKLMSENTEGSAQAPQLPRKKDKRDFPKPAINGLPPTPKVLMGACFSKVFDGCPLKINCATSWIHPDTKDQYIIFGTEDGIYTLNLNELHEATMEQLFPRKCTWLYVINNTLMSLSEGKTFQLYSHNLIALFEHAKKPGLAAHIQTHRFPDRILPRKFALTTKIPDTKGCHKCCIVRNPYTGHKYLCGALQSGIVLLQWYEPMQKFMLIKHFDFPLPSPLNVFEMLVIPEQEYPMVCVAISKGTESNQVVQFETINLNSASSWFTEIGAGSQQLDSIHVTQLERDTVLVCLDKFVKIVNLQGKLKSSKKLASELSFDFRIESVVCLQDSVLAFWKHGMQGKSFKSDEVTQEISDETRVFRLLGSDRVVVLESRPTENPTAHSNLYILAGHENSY

MAPK12 (human) = MAPK12 (human) (UniProt P53778)
MAPK13 (human) = MAPK13 (human) (UniProt O15264)
MAPK13 (human), sequence (O15264 whole entry, looked up): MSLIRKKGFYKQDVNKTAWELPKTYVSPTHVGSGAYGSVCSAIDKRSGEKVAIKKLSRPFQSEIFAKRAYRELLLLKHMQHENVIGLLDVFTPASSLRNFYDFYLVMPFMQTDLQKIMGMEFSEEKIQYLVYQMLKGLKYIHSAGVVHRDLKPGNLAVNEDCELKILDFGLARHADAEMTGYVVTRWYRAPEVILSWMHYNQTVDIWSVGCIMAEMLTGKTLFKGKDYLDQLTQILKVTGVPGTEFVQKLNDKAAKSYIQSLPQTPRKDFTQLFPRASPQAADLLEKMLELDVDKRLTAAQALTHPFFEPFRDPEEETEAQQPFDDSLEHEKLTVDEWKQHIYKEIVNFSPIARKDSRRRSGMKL

MAPK15 (human) = MAPK15 (human) (UniProt Q8TD08)
MAPK7 (human) = MAPK7 (human) (UniProt Q13164)
MARK3 (human) = MARK3 (human) (UniProt P27448)
MERTK (human) = MERTK (human) (UniProt Q12866)
NEK2 (human) = NEK2 (human) (UniProt P51955)
NEK2 (human), sequence (P51955 whole entry, looked up): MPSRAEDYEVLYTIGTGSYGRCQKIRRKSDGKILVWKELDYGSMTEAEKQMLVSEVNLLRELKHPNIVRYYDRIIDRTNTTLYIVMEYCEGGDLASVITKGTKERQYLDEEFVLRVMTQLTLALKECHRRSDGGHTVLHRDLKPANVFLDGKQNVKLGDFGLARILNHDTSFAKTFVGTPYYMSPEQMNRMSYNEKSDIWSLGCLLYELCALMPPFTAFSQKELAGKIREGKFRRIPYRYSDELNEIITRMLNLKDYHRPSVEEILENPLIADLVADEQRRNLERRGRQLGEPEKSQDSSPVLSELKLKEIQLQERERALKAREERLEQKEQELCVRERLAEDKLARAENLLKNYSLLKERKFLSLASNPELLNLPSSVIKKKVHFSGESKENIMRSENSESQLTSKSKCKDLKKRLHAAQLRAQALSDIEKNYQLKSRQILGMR

NEK4 (human) = NEK4 (human) (UniProt P51957)
NTRK2 (human) = NTRK2 (human) (UniProt Q16620)
NTRK3 (human) = NTRK3 (human) (UniProt Q16288)
PLK1 (human) = PLK1 (human) (UniProt P53350)
SIK2 (human) = SIK2 (human) (UniProt Q9H0K1)
SIK3 (human) = SIK3 (human) (UniProt Q9Y2K2)
SLK (human) = SLK (human) (UniProt Q9H2G2)
SRPK1 (human) = SRPK1 (human) (UniProt Q96SB4)
STK25 (human) = STK25 (human) (UniProt O00506)
TLK2 (human) = TLK2 (human) (UniProt Q86UE8)
YSK4 (human) = YSK4 (human) (UniProt Q56UN5)

O=c1cc(N2CCOCC2)oc2c(-c3cccc4c3sc3ccccc34)cccc12
kinase still bound, per cent of control (AXL (human)): 100% | kinase still bound, per cent of control (BMPR1B (human)): 35% | kinase still bound, per cent of control (BRSK1 (human)): 100% | kinase still bound, per cent of control (CASK (human)): 100% | kinase still bound, per cent of control (CDK4 CCND1 (human)): 100% | kinase still bound, per cent of control (CDKL1 (human)): 87% | kinase still bound, per cent of control (DDR1 (human)): 100% | kinase still bound, per cent of control (DDR2 (human)): 100% | kinase still bound, per cent of control (DSTYK (human)): 99% | kinase still bound, per cent of control [1]: 100% | kinase still bound, per cent of control (EPHA4 (human)): 82% | kinase still bound, per cent of control (EPHA8 (human)): 82% | kinase still bound, per cent of control (ERN1 (human)): 93% | kinase still bound, per cent of control [2]: 100% | kinase still bound, per cent of control (IKBKB (human)): 100% | kinase still bound, per cent of control [3]: 72% | kinase still bound, per cent of control (KDR (human)): 100% | kinase still bound, per cent of control (LIMK1 (human)): 100% | kinase still bound, per cent of control (MAK (human)): 43% | kinase still bound, per cent of control (MAP2K7 (human)): 100% | kinase still bound, per cent of control (MAP4K3 (human)): 76% | kinase still bound, per cent of control (MAP4K5 (human)): 89% | kinase still bound, per cent of control (MAPK12 (human)): 99% | kinase still bound, per cent of control (MAPK13 (human)): 99% | kinase still bound, per cent of control (MAPK15 (human)): 100% | kinase still bound, per cent of control (MAPK7 (human)): 100% | kinase still bound, per cent of control (MARK3 (human)): 99% | kinase still bound, per cent of control (MERTK (human)): 100% | kinase still bound, per cent of control (NEK2 (human)): 96% | kinase still bound, per cent of control (NEK4 (human)): 100% | kinase still bound, per cent of control (NTRK2 (human)): 100% | kinase still bound, per cent of control (NTRK3 (human)): 74% | kinase still bound, per cent of control (PLK1 (human)): 94% | kinase still bound, per cent of control (SIK2 (human)): 75% | kinase still bound, per cent of control (SIK3 (human)): 92% | kinase still bound, per cent of control (SLK (human)): 100% | kinase still bound, per cent of control (SRPK1 (human)): 100% | kinase still bound, per cent of control (STK25 (human)): 59% | kinase still bound, per cent of control (TLK2 (human)): 80% | kinase still bound, per cent of control (YSK4 (human)): 100%

O=C1NC(=O)/C(=C/c2ccc3nccc(-c4ccncc4)c3c2)S1
kinase still bound, per cent of control (AXL (human)): 7.6% | kinase still bound, per cent of control (BMPR1B (human)): 3.7% | kinase still bound, per cent of control (BRSK1 (human)): 73% | kinase still bound, per cent of control (CASK (human)): 59% | kinase still bound, per cent of control (CDK4 CCND1 (human)): 92% | kinase still bound, per cent of control (CDKL1 (human)): 61% | kinase still bound, per cent of control (DDR1 (human)): 62% | kinase still bound, per cent of control (DDR2 (human)): 63% | kinase still bound, per cent of control (DSTYK (human)): 61% | kinase still bound, per cent of control [1]: 84% | kinase still bound, per cent of control (EPHA4 (human)): 96% | kinase still bound, per cent of control (EPHA8 (human)): 90% | kinase still bound, per cent of control (ERN1 (human)): 66% | kinase still bound, per cent of control [2]: 90% | kinase still bound, per cent of control (IKBKB (human)): 34% | kinase still bound, per cent of control [3]: 57% | kinase still bound, per cent of control (KDR (human)): 81% | kinase still bound, per cent of control (LIMK1 (human)): 88% | kinase still bound, per cent of control (MAK (human)): 100% | kinase still bound, per cent of control (MAP2K7 (human)): 38% | kinase still bound, per cent of control (MAP4K3 (human)): 67% | kinase still bound, per cent of control (MAP4K5 (human)): 41% | kinase still bound, per cent of control (MAPK12 (human)): 56% | kinase still bound, per cent of control (MAPK13 (human)): 100% | kinase still bound, per cent of control (MAPK15 (human)): 0.05% | kinase still bound, per cent of control (MAPK7 (human)): 59% | kinase still bound, per cent of control (MARK3 (human)): 100% | kinase still bound, per cent of control (MERTK (human)): 14% | kinase still bound, per cent of control (NEK2 (human)): 64% | kinase still bound, per cent of control (NEK4 (human)): 96% | kinase still bound, per cent of control (NTRK2 (human)): 73% | kinase still bound, per cent of control (NTRK3 (human)): 68% | kinase still bound, per cent of control (PLK1 (human)): 26% | kinase still bound, per cent of control (SIK2 (human)): 100% | kinase still bound, per cent of control (SIK3 (human)): 93% | kinase still bound, per cent of control (SLK (human)): 0.3% | kinase still bound, per cent of control (SRPK1 (human)): 100% | kinase still bound, per cent of control (STK25 (human)): 75% | kinase still bound, per cent of control (TLK2 (human)): 87% | kinase still bound, per cent of control (YSK4 (human)): 0.05%

COCC(=O)NC/C=C/c1ccc2ncnc(Nc3ccc(Oc4ccc(C)nc4)c(C)c3)c2c1
kinase still bound, per cent of control (AXL (human)): 68% | kinase still bound, per cent of control (BMPR1B (human)): 74% | kinase still bound, per cent of control (BRSK1 (human)): 100% | kinase still bound, per cent of control (CASK (human)): 100% | kinase still bound, per cent of control (CDK4 CCND1 (human)): 100% | kinase still bound, per cent of control (CDKL1 (human)): 69% | kinase still bound, per cent of control (DDR1 (human)): 52% | kinase still bound, per cent of control (DDR2 (human)): 100% | kinase still bound, per cent of control (DSTYK (human)): 75% | kinase still bound, per cent of control (EPHA4 (human)): 98% | kinase still bound, per cent of control (EPHA8 (human)): 98% | kinase still bound, per cent of control (ERN1 (human)): 82% | kinase still bound, per cent of control [2]: 100% | kinase still bound, per cent of control (IKBKB (human)): 100% | kinase still bound, per cent of control (KDR (human)): 100% | kinase still bound, per cent of control (LIMK1 (human)): 93% | kinase still bound, per cent of control (MAK (human)): 90% | kinase still bound, per cent of control (MAP2K7 (human)): 100% | kinase still bound, per cent of control (MAP4K3 (human)): 80% | kinase still bound, per cent of control (MAP4K5 (human)): 86% | kinase still bound, per cent of control (MAPK12 (human)): 100% | kinase still bound, per cent of control (MAPK13 (human)): 100% | kinase still bound, per cent of control (MAPK15 (human)): 100% | kinase still bound, per cent of control (MAPK7 (human)): 100% | kinase still bound, per cent of control (MARK3 (human)): 100% | kinase still bound, per cent of control (MERTK (human)): 97% | kinase still bound, per cent of control (NEK2 (human)): 100% | kinase still bound, per cent of control (NEK4 (human)): 100% | kinase still bound, per cent of control (NTRK2 (human)): 100% | kinase still bound, per cent of control (NTRK3 (human)): 93% | kinase still bound, per cent of control (PLK1 (human)): 81% | kinase still bound, per cent of control (SIK2 (human)): 84% | kinase still bound, per cent of control (SIK3 (human)): 76% | kinase still bound, per cent of control (SLK (human)): 60% | kinase still bound, per cent of control (SRPK1 (human)): 100% | kinase still bound, per cent of control (STK25 (human)): 94% | kinase still bound, per cent of control (TLK2 (human)): 100% | kinase still bound, per cent of control (YSK4 (human)): 100%

COc1cc2ncn(-c3cc(OCc4ccccc4C(F)(F)F)c(C(N)=O)s3)c2cc1OC
kinase still bound, per cent of control (AXL (human)): 65% | kinase still bound, per cent of control (BMPR1B (human)): 64% | kinase still bound, per cent of control (CASK (human)): 93% | kinase still bound, per cent of control (CDK4 CCND1 (human)): 91% | kinase still bound, per cent of control (CDKL1 (human)): 72% | kinase still bound, per cent of control (DDR1 (human)): 100% | kinase still bound, per cent of control (DDR2 (human)): 81% | kinase still bound, per cent of control (DSTYK (human)): 88% | kinase still bound, per cent of control [1]: 100% | kinase still bound, per cent of control (EPHA4 (human)): 83% | kinase still bound, per cent of control (EPHA8 (human)): 74% | kinase still bound, per cent of control (ERN1 (human)): 75% | kinase still bound, per cent of control [3]: 100% | kinase still bound, per cent of control (KDR (human)): 76% | kinase still bound, per cent of control (LIMK1 (human)): 79% | kinase still bound, per cent of control (MAK (human)): 100% | kinase still bound, per cent of control (MAP2K7 (human)): 87% | kinase still bound, per cent of control (MAP4K3 (human)): 32% | kinase still bound, per cent of control (MAP4K5 (human)): 3% | kinase still bound, per cent of control (MAPK13 (human)): 100% | kinase still bound, per cent of control (MAPK15 (human)): 46% | kinase still bound, per cent of control (MAPK7 (human)): 100% | kinase still bound, per cent of control (MARK3 (human)): 78% | kinase still bound, per cent of control (MERTK (human)): 7% | kinase still bound, per cent of control (NEK2 (human)): 14% | kinase still bound, per cent of control (NEK4 (human)): 52% | kinase still bound, per cent of control (NTRK2 (human)): 59% | kinase still bound, per cent of control (NTRK3 (human)): 93% | kinase still bound, per cent of control (PLK1 (human)): 0.1% | kinase still bound, per cent of control (SIK2 (human)): 26% | kinase still bound, per cent of control (SIK3 (human)): 76% | kinase still bound, per cent of control (SLK (human)): 0.25% | kinase still bound, per cent of control (TLK2 (human)): 100% | kinase still bound, per cent of control (YSK4 (human)): 34%
